A short description of one data set: in vivo. Particulars: male, Wistar, rat, po. As to the method:
The EOC concentration in the aliquots of each specific section ((i) cargo release experiments, Section 2.6; (ii) EOCs permeability across the intestinal barriers, Section 2.13; and (iii) in vivo pharmacokinetic assays, Section 2.17) was analyzed by HPLC. For Thy and Eug molecules, the mobile phase used was ACN:H2O 50:50 v/v with 0.05% of TFA and absorbance detector using λex = 280 nm. For Cin, the mobile phase was ACN:H2O 85:15 v/v with 0.05% of TFA and λex = 254 nm. […] of volume injection were used and a flow of 1 mL/min was fixed. The methods were previously validated with adequate linearity, precision and accuracy (R > 0.99 and coefficient of variation < 5%).
In vivo experiments with M41-Cin-L in a Wistar rat model were carried out in order to study the concentration of cinnamaldehyde, free and encapsulated, in plasma and in the different gastrointestinal sections. The animal study was approved by the Scientific Committee of the Faculty of Pharmacy Universidad Miguel Hernández, Elche (project reference DI-MBS-02-15) and followed the guidelines described in the EC Directive 86/609, the Council of the Europe Convention ETS 123 and Spanish national laws governing the use of animals in research (Real Decreto 223/1988, BOE 67, 18-3-98:8509-8511). […] The concentration of Cin in each sample was determined by HPLC following the methodology described in Section 2.7.

In a further data set the test system is MCP-1. Nature of the data set: Inflammatory response measurement: MCP-1 release in apical media. The class given is cell-based, Human. Particulars: 24 h, EOC 200 μM free or in M41-EOC-L; LPS 10 μg/mL positive control. Here is the method: The Caco-2 cell epithelia were incubated in cell culture medium with each treatment, free EOCs (200 μM) and […] solids (concentration of particles corresponding to a 200 μM EOC-payload), during the time required to perform the assay: 90 min for EOCs permeability (see Section 2.13) and 24 h for the other interaction studies (Lucifer yellow, Section 2.14, and inflammatory response measurement, Section 2.15). In addition, some cell inserts were incubated with free medium at the same conditions as negative controls. TEER measurements were performed before and after each treatment to ascertain the validity of the membranes before the assay and to know the treatment's effect on them. Inflammatory cytokine and chemokine release (IL-8, MCP-1) was measured in the apical media from the enterocyte layers after 24 h of treatment with the corresponding […]-EOC-L and free EOCs. For the measurement, a Bio-Plex 1 MAGPIX TM Multiplex Reader (Bio-Rad) was employed according to the manufacturer-described-procedure. The cells were stimulated with 10 μg/mL LPS as positive control.

As for `O=C/C=C/c1ccccc1` [Cin, cinnamaldehyde], in “in vivo”, the Tmax was 0.75 h and the half-life came to 1.36 h.

In the case of `C=CCc1ccc(O)c(OC)c1` [Eug, eugenol], the “MCP-1 levels in the apical compartment” value with MCP-1 is reported as “increases its levels”.

For the origin of these results see article PMC8309014, “Lactose-Gated Mesoporous Silica Particles for Intestinal Controlled Delivery of Essential Oil Components: An In Vitro and In Vivo Study” (Pharmaceutics, 2021).
